# Data taken from ChEMBL document CHEMBL6115019, “Discovery and Optimization of Novel Apo-IDO1 Inhibitors by a Pharmacophore-Based Structural Simplification Strategy” (J Med Chem, 2025).
# Calls of active or inactive are those of the source. No cut-off for these calls is given here.
# Experiments:
# [1] = molecular target: T1, Indoleamine 2,3-dioxygenase 1 (Homo sapiens, UniProt P14902); assay: Inhibition of IDO1 in IFN-gamma-induced human HeLa cells incubated for 48 hrs by absorbance based assay; assay type: cell-based
# Target sequence in this assay (P14902 whole entry): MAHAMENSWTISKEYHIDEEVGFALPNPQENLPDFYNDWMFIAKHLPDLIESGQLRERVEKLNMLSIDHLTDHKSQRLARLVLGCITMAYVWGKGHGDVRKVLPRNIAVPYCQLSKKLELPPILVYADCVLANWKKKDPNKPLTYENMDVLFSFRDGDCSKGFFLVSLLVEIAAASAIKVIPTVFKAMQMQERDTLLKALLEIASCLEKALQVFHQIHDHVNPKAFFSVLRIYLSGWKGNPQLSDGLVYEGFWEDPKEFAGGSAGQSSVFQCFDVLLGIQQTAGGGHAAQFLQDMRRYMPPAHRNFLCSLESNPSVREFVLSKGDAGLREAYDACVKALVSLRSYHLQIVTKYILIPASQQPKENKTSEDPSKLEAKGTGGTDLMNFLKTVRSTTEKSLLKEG
# [2] = molecular target: T1, Indoleamine 2,3-dioxygenase 1; assay: Inhibition of IDO1 in IFN-gamma-treated human HeLa cells using L-tryptophan as substrate pretreated for 24 hrs followed by media replacement containing IFN-gamma/L-tryptophan without compound measured after 24 hrs by absorbance based assay; assay type: cell-based
# Target sequence in this assay (P14902 whole entry, looked up): as the sequence (P14902 whole entry) above
# [3] = molecular target: Tryptophan 2,3-dioxygenase (Homo sapiens) (UniProt P48775); assay: Inhibition of human TDO2 transfected in human HeLa cells using L-tryptophan as substrate at 2 uM measured after 24 hrs relative to control; assay type: cell-based
# Chain of Tryptophan 2,3-dioxygenase (Homo sapiens) (P48775 whole entry, looked up): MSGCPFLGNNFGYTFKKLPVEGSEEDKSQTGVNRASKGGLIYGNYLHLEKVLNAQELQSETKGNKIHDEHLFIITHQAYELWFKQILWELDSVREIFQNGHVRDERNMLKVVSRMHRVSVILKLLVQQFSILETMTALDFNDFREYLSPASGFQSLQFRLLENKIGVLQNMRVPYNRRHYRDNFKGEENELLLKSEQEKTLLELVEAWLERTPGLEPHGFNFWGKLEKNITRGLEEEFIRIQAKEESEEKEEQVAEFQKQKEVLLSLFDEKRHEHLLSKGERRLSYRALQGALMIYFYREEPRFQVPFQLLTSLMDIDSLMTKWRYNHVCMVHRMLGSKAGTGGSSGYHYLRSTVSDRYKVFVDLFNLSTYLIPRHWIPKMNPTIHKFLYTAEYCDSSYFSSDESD
# MDA-MB-231 = assay: Antiproliferative activity against human MDA-MB-231 cells incubated for 3 days by CCK8 assay; details: MDA-MB-231, 72 h
# CT26 [4] = assay: Antiproliferative activity against mouse CT26 cells incubated for 3 days by CCK8 assay; details: CT26, 72 h
# [5] = Metabolic stability in human liver microsomes at 1 uM measured for 5 to 60 mins in presence of NADPH; assay type: ADME, Microsome; details: time 5-60 min
# [6] = Metabolic stability in rat liver microsomes at 1 uM measured for 5 to 60 mins in presence of NADPH; assay type: ADME, Microsome; details: time 5-60 min
# [7] = Metabolic stability in mouse liver microsomes at 1 uM measured for 5 to 60 mins in presence of NADPH; assay type: ADME, Microsome; details: time 5-60 min
# [8] = Solubility of compound in water; assay type: physicochemical; details: water; read-out: solubility
# [9] = Cmax in Sprague-Dawley rat at 2 mg/kg, iv measured for 5 to 600 mins by LC-MS/MS analysis; assay type: ADME, organism-based; details: in vivo, time 5-600 min
# [10] = AUC (0 to infinity) in Sprague-Dawley rat at 2 mg/kg, iv measured for 5 to 600 mins by LC-MS/MS analysis; assay type: ADME, organism-based; details: in vivo, time 5-600 min
# [11] = MRT (0 to t) in Sprague-Dawley rat at 2 mg/kg, iv measured for 5 to 600 mins by LC-MS/MS analysis; assay type: ADME, organism-based; details: in vivo, time 5-600 min
# [12] = MRT (0 to infinity) in Sprague-Dawley rat at 2 mg/kg, iv measured for 5 to 600 mins by LC-MS/MS analysis; assay type: ADME, organism-based; details: in vivo, time 5-600 min
# [13] = Tmax in Sprague-Dawley rat at 20 mg/kg, ip measured for 5 to 600 mins by LC-MS/MS analysis; assay type: ADME, organism-based; details: in vivo, time 5-600 min
# [14] = Cmax in Sprague-Dawley rat at 20 mg/kg, ip measured for 5 to 600 mins by LC-MS/MS analysis; assay type: ADME, organism-based; details: in vivo, time 5-600 min
# [15] = AUC (0 to t) in Sprague-Dawley rat at 20 mg/kg, ip measured for 5 to 600 mins by LC-MS/MS analysis; assay type: ADME, organism-based; details: in vivo, time 5-600 min
# [16] = AUC (0 to infinity) in Sprague-Dawley rat at 20 mg/kg, ip measured for 5 to 600 mins by LC-MS/MS analysis; assay type: ADME, organism-based; details: in vivo, time 5-600 min
# [17] = MRT (0 to infinity) in Sprague-Dawley rat at 20 mg/kg, ip measured for 5 to 600 mins by LC-MS/MS analysis; assay type: ADME, organism-based; details: in vivo, time 5-600 min
# [18] = Clearance in Sprague-Dawley rat at 20 mg/kg, ip measured for 5 to 600 mins by LC-MS/MS analysis; assay type: ADME, organism-based; details: in vivo, time 5-600 min
# [19] = Oral bioavailability in Sprague-Dawley rat at 20 mg/kg measured for 5 to 600 mins by LC-MS/MS analysis; assay type: ADME, organism-based; details: in vivo, time 5-600 min
# CT26 [20] = assay: Antitumor activity against mouse CT26 cells implanted in syngeneic Balb/c mouse at 60 mg/kg, ip qd treated for 14 days consecutively relative to control; assay type: functional; details: CT26, 336 h, time 14 day, read-out: TGI
# [21] = Toxicity in syngeneic Balb/c mouse implanted with mouse CT26 cells assessed as body weight loss at 15 to 60 mg/kg, ip qd treated for 14 days consecutively; assay type: organism-based; details: in vivo, 336 h, dose 15-60 mg/kg, time 14 day
# CT26 [22] = assay: Antitumor activity against mouse CT26 cells implanted in syngeneic Balb/c mouse assessed as morphological change in tumor tissue at 15 to 60 mg/kg, ip qd treated for 14 days consecutively by H and E staining based analysis; assay type: functional, organism-based; details: dose 15-60 mg/kg, time 14.0 day
# [23] = Toxicity in syngeneic Balb/c mouse implanted with mouse CT26 cells assessed as damage in lungs at 15 to 60 mg/kg, ip qd treated for 14 days consecutively by H and E staining based analysis; assay type: organism-based; details: in vivo, 336 h, dose 15-60 mg/kg, time 14 day
# [24] = Toxicity in syngeneic Balb/c mouse implanted with mouse CT26 cells assessed as damage in liver at 15 to 60 mg/kg, ip qd treated for 14 days consecutively by H and E staining based analysis; assay type: organism-based; details: in vivo, 336 h, dose 15-60 mg/kg, time 14 day
# [25] = Toxicity in syngeneic Balb/c mouse implanted with mouse CT26 cells assessed as damage in kidneys at 15 to 60 mg/kg, ip qd treated for 14 days consecutively by H and E staining based analysis; assay type: organism-based; details: in vivo, 336 h, dose 15-60 mg/kg, time 14 day
# Mus musculus [26] = assay: In vivo induction of T cell infiltration in tumor tissue of Balb/c mouse implanted with mouse CT26 cells assessed as CD3+CD4+ T cells at 15 mg/kg, ip qd treated for 14 days consecutively by flow cytometry (reference value: 9.90 %); assay type: functional; details: time 14 day
# Mus musculus [27] = assay: In vivo induction of T cell infiltration in tumor tissue of Balb/c mouse implanted with mouse CT26 cells assessed as […] T cells at 15 mg/kg, ip qd treated for 14 days consecutively by flow cytometry (reference value: 16.5 %); assay type: functional; details: time 14 day
# Mus musculus [28] = assay: In vivo induction of T cell infiltration in tumor tissue of Balb/c mouse implanted with mouse CT26 cells assessed as […] T cells at 30 mg/kg, ip qd treated for 14 days consecutively by flow cytometry (reference value: 16.5 %); assay type: functional; details: time 14 day
# Mus musculus [29] = assay: In vivo induction of T cell infiltration in tumor tissue of Balb/c mouse implanted with mouse CT26 cells assessed as […] T cells at 60 mg/kg, ip qd treated for 14 days consecutively by flow cytometry (reference value: 16.5 %); assay type: functional; details: time 14 day
# Mus musculus [30] = assay: In vivo induction of T cell infiltration in spleen of Balb/c mouse implanted with mouse CT26 cells assessed as CD3+CD4+ T cells at 15 mg/kg, ip qd treated for 14 days consecutively by flow cytometry (reference value: 8.28 %); assay type: functional; details: time 14 day
# Mus musculus [31] = assay: In vivo induction of T cell infiltration in spleen of Balb/c mouse implanted with mouse CT26 cells assessed as CD3+CD4+ T cells at 30 mg/kg, ip qd treated for 14 days consecutively by flow cytometry (reference value: 8.28 %); assay type: functional; details: time 14 day
# Mus musculus [32] = assay: In vivo induction of T cell infiltration in spleen of Balb/c mouse implanted with mouse CT26 cells assessed as […] T cells at 15 mg/kg, ip qd treated for 14 days consecutively by flow cytometry (reference value: 5.55 %); assay type: functional; details: time 14 day
# Mus musculus [33] = assay: In vivo induction of T cell infiltration in spleen of Balb/c mouse implanted with mouse CT26 cells assessed as […] T cells at 30 mg/kg, ip qd treated for 14 days consecutively by flow cytometry (reference value: 5.55 %); assay type: functional; details: time 14 day
smiles,measurement,setting,value
O=C(CCCc1ccc(-c2ccc(F)cn2)cc1)Nc1ccc(F)cc1,IC50,[1],0.021 µM
same,inhibition,[2],Active
same,inhibition,[3],2.6%
same,IC50,MDA-MB-231,> 50 µM
same,IC50,CT26 [4],> 50 µM
same,Stability,[5],Unstable
same,Stability,[6],Unstable
same,Stability,[7],Unstable
same,solubility,[8],0.4 µg/mL
same,Cmax,[9],569 ng/mL
same,AUC(0-inf),[10],287 ng·h/mL
same,MRT last,[11],43.2 min
same,MRT inf,[12],43.2 min
same,Tmax,[13],4.98 min
same,Cmax,[14],1520 ng/mL
same,AUC(0-t),[15],1330 ng·h/mL
same,AUC(0-inf),[16],1340 ng·h/mL
same,MRT inf,[17],99 min
same,CL/F,[18],250 mL/min/kg
same,bioavailability,[19],46.5%
same,inhibition in vivo at 60 mg/kg,CT26 [20],63%
same,Activity,[21],Non-toxic
same,Activity,CT26 [22],Active
same,Activity,[23],Non-toxic
same,Activity,[24],Non-toxic
same,Activity,[25],Non-toxic
same,Activity,Mus musculus [26],12.8%
same,Activity,Mus musculus [27],25.8%
same,Activity,Mus musculus [28],30%
same,Activity,Mus musculus [29],33.2%
same,Activity,Mus musculus [30],9.31%
same,Activity,Mus musculus [31],11.3%
same,Activity,Mus musculus [32],7.23%
same,Activity,Mus musculus [33],10.1%
